The text below walks through data of patent US11760758B2 (The Trustees of Columbia University in the City of New York, priority 2018, dated 2023).

For test [1], the target named is T1, human MOR (Homo sapiens, UniProt P35372).
T1 construct: host or cells: HEK-293T
Briefly: BRET functional assay for G protein activation at hMOR. Type of test: cell-based. The note with it: for Agonist activity at hMOR (in words): compared to DAMGO. Background: BRET reads energy transfer from a luciferase to a nearby fluorophore.

In test [2] the target is T2, mouse MOR (Mus musculus, UniProt P42866). Nature of the test: Radioligand competition binding ([125I]BNtxA), CHO membranes, MOR. The note with it: for Ki: mean +/- SE, n = 3, CHO transfected with mouse opioid receptors. On the technique in general: In a radioligand displacement assay an active substance lowers the binding of a labelled ligand.
Another test addresses T3, mouse KOR (Mus musculus, UniProt P33534).
T3 construct: expressed in transfected cells; membranes
Nature of the test: Radioligand competition binding ([125I]BNtxA), CHO membranes, KOR. The note with it: for Ki: mean +/- SE, n = 3, CHO transfected with mouse opioid receptors.

The target in a further test is T4, mouse DOR (Mus musculus, UniProt P32300).
T4 construct: expressed in transfected cells; membranes
Briefly: Radioligand competition binding ([125I]BNtxA), CHO membranes, DOR. The note with it: for Ki: mean +/- SE, n = 3, CHO transfected with mouse opioid receptors.

In test [3] the target is T2, mouse MOR. Nature of the test: cAMP sensor CAMYEL functional assay at mMOR. The arrangement: host or cells: HEK-293T. The note with it: for Agonist activity at mMOR (in words): mMOR CAMYEL assay. Type of test: cell-based.
Test [4] addresses T1, human MOR. The note with it: Kruegel, et al. 2016; cited from earlier work.
[5] abbreviates: Table 2, MG-EG series, hMOR G protein BRET, normalized to DAMGO Emax = 100%.
The mark [6] stands for this setting: Table 3, 7-OH series, hMOR G protein BRET, normalized to DAMGO Emax = 100%.
[7] abbreviates: Table 1, mitragynine series, hMOR G protein BRET, normalized to DAMGO Emax = 100%.
The mark [8] stands for this setting: EC50 (nM), Table 1, mitragynine series, hMOR G protein BRET, 95% confidence limits in brackets.

What is called EC50 is the concentration at which the effect is half-maximal. As a reminder, the Emax is the size of the effect at its maximum, as opposed to the concentration needed. For orientation: Ki means a dissociation constant, usually derived from enzyme kinetics or from competition with a known ligand. A higher Ki goes with lower affinity.

Molecules are shown by their SMILES. Read-outs that look alike come from different tables or passages of the source. Some results are limits rather than exact numbers.

`CC[C@@H]1CN2CC[C@@]34OCCO[C@@]3(Nc3cccc(OC)c34)[C@@H]2C[C@@H]1/C(=C\OC)C(=O)OC` [Compound 1, mitragynine-ethylene glycol adduct, reference compound] yielded an EC50 on human MOR [1] (EC50 (nM), Table 2, MG-EG series, hMOR G protein BRET, 95% confidence limits in brackets) of 14.8 nM. For the same molecule, the Emax at human MOR [1] (setting [5]) was found to be 56.2%. Moreover, at human MOR [1] (hMOR G protein BRET), the “Agonist activity at hMOR (in words)” value is on record as “partial agonist”.

In the case of `CC[C@@H]1CN2CC[C@@]3(O)C(=Nc4cc(Cl)cc(OC)c43)[C@@H]2C[C@@H]1/C(=C\OC)C(=O)OC` [Compound 25, 11-chloro-7-OH], the Emax at human MOR [1] (setting [6]) and on mouse MOR [3] was under 20% in each case. Besides, the “Agonist activity at hMOR (in words)” value at human MOR [1] (hMOR G protein BRET) was “agonist activity was abolished”. Moreover, the values for the Ki on mouse MOR [2], on mouse KOR and on mouse DOR were 27.1 ± 1.12 nM, 30.6 ± 11.3 nM and 47.2 ± 2.36 nM, respectively. In addition, at mouse MOR [3], the “Agonist activity at mMOR (in words)” value is “not agonists”.

Take `CC[C@@H]1CN2CC[C@@]3(O)C(=Nc4cc(Br)cc(OC)c43)[C@@H]2C[C@@H]1/C(=C\OC)C(=O)OC` [Compound 26, 11-bromo-7-OH]: the maximal effect (Emax) at human MOR [1] (setting [6]) and at mouse MOR [3] was under 20% each time. In addition, the “Agonist activity at hMOR (in words)” value on human MOR [1] (hMOR G protein BRET) is listed as “agonist activity was abolished”. For the same molecule, the Ki on mouse MOR [2] worked out at 32.4 ± 1.42 nM; on mouse KOR, 81.1 ± 7.11 nM; at mouse DOR, 57.7 ± 6.66 nM. The “Agonist activity at mMOR (in words)” value at mouse MOR [3] is reported as “not agonists”.

Take `CC[C@@H]1CN2CC[C@@]3(O)C(=Nc4cccc(OC)c43)[C@@H]2C[C@@H]1/C(=C\OC)C(=O)OC` [Compound 23, 7-hydroxymitragynine, reference compound]: the Emax was found to be 88% at human MOR [1] (setting [6]) and 92.4% on mouse MOR [3]. The results for the Ki on mouse MOR [2], on mouse KOR and at mouse DOR were 21.4 ± 0.81 nM, 119 ± 2.14 nM and 88.5 ± 9.86 nM, respectively. The molecule also displayed a half-maximal effective concentration (EC50) on mouse MOR [3] of 13 nM.

`CC[C@@H]1CN2CC[C@@]34OCCO[C@@]3(Nc3cc(Br)cc(OC)c34)[C@@H]2C[C@@H]1/C(=C\OC)C(=O)OC` [Compound 4, 11-bromo-MG-EG] returned an Emax at human MOR [1] (setting [5]) of under 20%. The “Agonist activity at hMOR (in words)” value at human MOR [1] (hMOR G protein BRET) was “negligible agonist activity”.

`CC[C@@H]1CN2CCc3c([nH]c4cccc(OC)c34)[C@@H]2C[C@@H]1/C(=C\OC)C(=O)OC` [Compound 12, mitragynine, reference compound] registered an Emax at human MOR [1] (setting [7]) of 26.5%. In addition, on human MOR [4], the “Agonist activity at hMOR (in words), previously shown” value is given as “partial agonist”.

`CC[C@@H]1CN2CC[C@@]34OCCO[C@@]3(Nc3cc(F)cc(OC)c34)[C@@H]2C[C@@H]1/C(=C\OC)C(=O)OC` [Compound 2, 11-Fluoromitragynine-ethylene glycol adduct] gave an Emax on human MOR [1] (setting [5]) of under 20%. At human MOR [1] (hMOR G protein BRET), the “Agonist activity at hMOR (in words)” value is reported as “negligible agonist activity”.

At human MOR [1] (setting [5]), `CC[C@@H]1CN2CC[C@@]34OCCO[C@@]3(Nc3cc(Cl)cc(OC)c34)[C@@H]2C[C@@H]1/C(=C\OC)C(=O)OC` [Compound 3, C11-Chloromitragynine-ethylene glycol adduct] gave an Emax of under 20%. In addition, the “Agonist activity at hMOR (in words)” value on human MOR [1] (hMOR G protein BRET) is “negligible agonist activity”.

Take `CC[C@@H]1CN2CC[C@@]34OCCO[C@@]3(Nc3cc(O)cc(OC)c34)[C@@H]2C[C@@H]1/C(=C\OC)C(=O)OC` [Compound 6, 11-hydroxy-MG-EG]: on human MOR [1], the concentration giving a half-maximal response (EC50) was found to be 11.3 nM and the Emax is 67.4%.

In the case of `CC[C@@H]1CN2CCc3c([nH]c4cc(Cl)cc(OC)c34)[C@@H]2CC1/C(=C\OC)C(=O)OC` (stereo partly shown) [Compound 14, 11-Chloromitragynine], the EC50 at human MOR [1] (setting [8]) was found to be 327 nM. In addition, the Emax on human MOR [1] (setting [7]) stood at 33.4%.

On human MOR [1] (setting [7]), `CC[C@@H]1CN2CCc3c([nH]c4cc(Br)cc(OC)c34)[C@@H]2C[C@@H]1/C(=C\OC)C(=O)OC` [Compound 15, 11-bromo-MG] returned an Emax of under 20%. Moreover, at human MOR [1] (hMOR G protein BRET), the “Agonist activity at hMOR (in words)” value is “no/negligible agonist activity”.

With `CC[C@@H]1CN2CC[C@@]3(O)C(=Nc4cc(F)cc(OC)c43)[C@@H]2C[C@@H]1/C(=C\OC)C(=O)OC` [Compound 24, 11-Fluoro-7-hydroxymitragynine], the 50% effective concentration (EC50) on human MOR [1] (EC50 (nM), Table 3, 7-OH series, hMOR G protein BRET, 95% confidence limits in brackets) came out at 3.98 nM; on mouse MOR [3] (Table 5, 7-OH series, mMOR CAMYEL cAMP assay, 95% confidence limits in brackets, read-out: EC50), 15.1 nM. For the same molecule, the maximum response (Emax) was 47% at human MOR [1] (setting [6]) and 63.8% at mouse MOR [3]. For the same molecule, the Ki on mouse MOR [2] came out at 13.7 ± 1.01 nM; at mouse KOR, 21 ± 3.26 nM; at mouse DOR, 35.8 ± 2.01 nM. Besides, the “Gain in affinity at mMOR relative to parent 7-OH, 23” value at mouse MOR [2] (ratio of affinity vs 7-OH (23)) is “approximately 2 fold”. For the same molecule, the “Affinity at KOR relative to parent compound 23” value at mouse KOR (ratio of affinity vs 7-OH (23)) was “six times greater”. In addition, the “Affinity for DOR relative to 7-OH, 23” value on mouse DOR (ratio of affinity vs 7-OH (23)) is recorded as over 2 fold.

For `CC[C@@H]1CN2CCc3c([nH]c4cc(F)cc(OC)c34)[C@@H]2C[C@@H]1/C(=C\OC)C(=O)OC` [Compound 13, 11-fluoro-MG], the response at human MOR [1] (setting [8]) was half-maximal at 81.5 nM (EC50). For the same molecule, on human MOR [1] (setting [7]), the Emax stood at 49%.
